Reference: the supplement of paper PMC10307832

Columns and labels:
Assay in all cases: relative viability (nuclei count vs DMSO), 5 days (fraction); higher = more cells survive
NCI-H1734 = tested on: NCI-H1734
In short: (§1)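 Lung cancer cell lines were seeded in 1536-well plates and dosed by pin tool the next day, with either a single drug or a fixed anchor-drug dose combined with five library-drug doses (not always all listed) spaced in √10 steps. Five days later, one step fixed the cells and stained their nuclei (final 0.05% Triton X-100, 1% formaldehyde, 1 ug/ml Hoechst), and nuclei were counted on 4× images. Relative viability is the nuclei count in treated wells divided by the count in vehicle wells, and each value is the median of duplicate plates.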

SW 900 = tested on: SW 900
In short: as §1

NCI-H1792 = tested on: NCI-H1792
In short: as §1

LK-2 = tested on: LK-2
In short: as §1

HARA = tested on: HARA
In short: as §1

EPLC-272H = tested on: EPLC-272H
In short: as §1

NCI-H596 = tested on: NCI-H596
In short: as §1

NCI-H460 = tested on: NCI-H460
In short: as §1

NCI-H1755 = tested on: NCI-H1755
In short: as §1

LU99A = tested on: LU99A
In short: as §1

A-427 = tested on: A-427
In short: as §1

EMC-BAC-2 = tested on: EMC-BAC-2
In short: as §1

NCI-H522 = tested on: NCI-H522
In short: as §1

NCI-H358 = tested on: NCI-H358
In short: as §1

NCI-H1993 = tested on: NCI-H1993
In short: as §1

NCI-H2405 = tested on: NCI-H2405
In short: as §1

RERF-LC-KJ = tested on: RERF-LC-KJ
In short: as §1

NCI-H647 = tested on: NCI-H647
In short: as §1

EKVX = tested on: EKVX
In short: as §1

ChaGo-K-1 = tested on: ChaGo-K-1
In short: as §1

HCC-44 = tested on: HCC-44
In short: as §1

Cc1csc(=NC2CCCCC2)n1/N=C/c1ccc(O)c(O)c1O [MIM1] + NC(=O)Nc1cc(-c2cccc(F)c2)sc1C(=O)N[C@H]1CCCNC1 [AZD7762] (partner 0.2 µM)
relative viability (NCI-H1734; first compound 0.2 µM): 0.524 | relative viability (NCI-H1734; first compound 0.6325 µM): 0.467 | relative viability (NCI-H1734; first compound 2 µM): 0.492 | relative viability (NCI-H1734; first compound 6.325 µM): 0.417 | relative viability (NCI-H1734; first compound 20 µM): 0.158 | relative viability (SW 900; first compound 0.2 µM): 0.669 | relative viability (SW 900; first compound 0.6325 µM): 0.615 | relative viability (SW 900; first compound 2 µM): 0.592 | relative viability (SW 900; first compound 6.325 µM): 0.296 | relative viability (SW 900; first compound 20 µM): 0.19 | relative viability (NCI-H1792; first compound 0.2 µM): 0.657 | relative viability (NCI-H1792; first compound 0.6325 µM): 0.565 | relative viability (NCI-H1792; first compound 2 µM): 0.733 | relative viability (NCI-H1792; first compound 6.325 µM): 0.559 | relative viability (NCI-H1792; first compound 20 µM): 0.858 | relative viability (LK-2; first compound 0.2 µM): 0.423 | relative viability (LK-2; first compound 0.6325 µM): 0.287 | relative viability (LK-2; first compound 2 µM): 0.333 | relative viability (LK-2; first compound 6.325 µM): 0.324 | relative viability (LK-2; first compound 20 µM): 0.25 | relative viability (HARA; first compound 0.2 µM): 0.345 | relative viability (HARA; first compound 0.6325 µM): 0.412 | relative viability (HARA; first compound 2 µM): 0.189 | relative viability (HARA; first compound 6.325 µM): 0.219 | relative viability (HARA; first compound 20 µM): 0.148 | relative viability (EPLC-272H; first compound 0.2 µM): 0.224 | relative viability (EPLC-272H; first compound 0.6325 µM): 0.305 | relative viability (EPLC-272H; first compound 2 µM): 0.208 | relative viability (EPLC-272H; first compound 6.325 µM): 0.245 | relative viability (EPLC-272H; first compound 20 µM): 0.106 | relative viability (NCI-H596; first compound 0.2 µM): 1.17 | relative viability (NCI-H596; first compound 0.6325 µM): 1.22 | relative viability (NCI-H596; first compound 2 µM): 1.03 | relative viability (NCI-H596; first compound 6.325 µM): 1.11 | relative viability (NCI-H596; first compound 20 µM): 0.819 | relative viability (NCI-H460; first compound 0.2 µM): 0.538 | relative viability (NCI-H460; first compound 0.6325 µM): 0.629 | relative viability (NCI-H460; first compound 2 µM): 0.526 | relative viability (NCI-H460; first compound 6.325 µM): 0.251 | relative viability (NCI-H460; first compound 20 µM): 0.0582 | relative viability (NCI-H1755; first compound 0.2 µM): 0.464 | relative viability (NCI-H1755; first compound 0.6325 µM): 0.436 | relative viability (NCI-H1755; first compound 2 µM): 0.433 | relative viability (NCI-H1755; first compound 6.325 µM): 0.38 | relative viability (NCI-H1755; first compound 20 µM): 0.354 | relative viability (LU99A; first compound 0.2 µM): 0.364 | relative viability (LU99A; first compound 0.6325 µM): 0.265 | relative viability (LU99A; first compound 2 µM): 0.258 | relative viability (LU99A; first compound 6.325 µM): 0.218 | relative viability (LU99A; first compound 20 µM): 0.0782 | relative viability (A-427; first compound 0.2 µM): 0.706 | relative viability (A-427; first compound 0.6325 µM): 0.7 | relative viability (A-427; first compound 2 µM): 0.651 | relative viability (A-427; first compound 6.325 µM): 0.525 | relative viability (A-427; first compound 20 µM): 0.395 | relative viability (EMC-BAC-2; first compound 0.2 µM): 1.12 | relative viability (EMC-BAC-2; first compound 0.6325 µM): 0.776 | relative viability (EMC-BAC-2; first compound 2 µM): 1.09 | relative viability (EMC-BAC-2; first compound 6.325 µM): 0.999 | relative viability (EMC-BAC-2; first compound 20 µM): 0.314 | relative viability (NCI-H522; first compound 0.2 µM): 0.891 | relative viability (NCI-H522; first compound 0.6325 µM): 0.957 | relative viability (NCI-H522; first compound 2 µM): 0.824 | relative viability (NCI-H522; first compound 6.325 µM): 0.78 | relative viability (NCI-H522; first compound 20 µM): 0.511 | relative viability (NCI-H358; first compound 0.2 µM): 0.496 | relative viability (NCI-H358; first compound 0.6325 µM): 0.512 | relative viability (NCI-H358; first compound 2 µM): 0.468 | relative viability (NCI-H358; first compound 6.325 µM): 0.342 | relative viability (NCI-H358; first compound 20 µM): 0.231 | relative viability (NCI-H1993; first compound 0.2 µM): 0.704 | relative viability (NCI-H1993; first compound 0.6325 µM): 0.761 | relative viability (NCI-H1993; first compound 2 µM): 0.73 | relative viability (NCI-H1993; first compound 6.325 µM): 0.569 | relative viability (NCI-H1993; first compound 20 µM): 0.35 | relative viability (NCI-H2405; first compound 0.2 µM): 0.835 | relative viability (NCI-H2405; first compound 0.6325 µM): 0.806 | relative viability (NCI-H2405; first compound 2 µM): 0.772 | relative viability (NCI-H2405; first compound 6.325 µM): 0.667 | relative viability (NCI-H2405; first compound 20 µM): 0.849 | relative viability (RERF-LC-KJ; first compound 0.2 µM): 0.957 | relative viability (RERF-LC-KJ; first compound 0.6325 µM): 0.917 | relative viability (RERF-LC-KJ; first compound 2 µM): 0.818 | relative viability (RERF-LC-KJ; first compound 6.325 µM): 0.687 | relative viability (RERF-LC-KJ; first compound 20 µM): 0.17 | relative viability (NCI-H647; first compound 0.2 µM): 0.502 | relative viability (NCI-H647; first compound 0.6325 µM): 0.379 | relative viability (NCI-H647; first compound 6.325 µM): 0.409 | relative viability (NCI-H647; first compound 20 µM): 0.073 | relative viability (EKVX; first compound 0.2 µM): 0.697 | relative viability (EKVX; first compound 0.6325 µM): 0.616 | relative viability (EKVX; first compound 2 µM): 0.625 | relative viability (EKVX; first compound 6.325 µM): 0.599 | relative viability (EKVX; first compound 20 µM): 0.44 | relative viability (ChaGo-K-1; first compound 0.2 µM): 0.869 | relative viability (ChaGo-K-1; first compound 0.6325 µM): 0.883 | relative viability (ChaGo-K-1; first compound 2 µM): 0.907 | relative viability (ChaGo-K-1; first compound 6.325 µM): 0.596 | relative viability (ChaGo-K-1; first compound 20 µM): 0.248 | relative viability (HCC-44; first compound 0.2 µM): 0.985 | relative viability (HCC-44; first compound 0.6325 µM): 0.985 | relative viability (HCC-44; first compound 2 µM): 0.961 | relative viability (HCC-44; first compound 6.325 µM): 0.947 | relative viability (HCC-44; first compound 20 µM): 0.521
